# Measurements: US20100285959A1, “HERBICIDAL MIXTURES” (priority 2006, published 2010)
# What was measured:
# corn (ZEAMD) = assay: Test 1 field trial, preemergence; type: in vivo, Zea mays ssp. indentata; parameters: scale not given here; conditions: g a.i./ha: Atrazine 1680, S-Metolachlor 1870
# From the text: Corn seeds (hybrid ‘Pioneer 34N43’) were planted in mid spring season, 3.8 cm deep in a silt loam soil having 4.6% organic matter and a pH of 6. Plots were 10.7 m long by 1.5 m wide with rows spaced 76 cm apart. Seeds were spaced 18 cm apart within the rows. The field was managed using conventional tillage practices. […] Results are summarized in Table 1 and are the means of the three replicates. […] Colby's Equation (Colby, S. R. “Calculating Synergistic and Antagonistic Responses of Herbicide Combinations,” Weeds, 15(1), pp 20-22 (1967)) calculates the expected additive effect of herbicidal mixtures, and for two active ingredients is of the form:
# Pa+b=Pa+Pb−(PaPb/100) • wherein Pa+b is the percentage effect of the mixture expected from additive contribution of the individual components, • Pa is the observed percentage effect of the first active ingredient at the same use rate as in the mixture, and • Pb is the observed percentage effect of the second active ingredient at the same use rate as in the mixture.
# jimsonweed (DATST) [1] = assay: Test 7 field trial, preemergence; type: in vivo, Datura stramonium; conditions: 1000 g a.i./ha
# Description: Plots were 7.6 m long by 3.0 m wide with rows spaced 76 cm apart. Seeds were spaced 15 cm apart within the rows. The field was managed using conventional tillage practices. […] Wild radish was evaluated 14 and 28 days after application. […] Results are the means of the three replicates.
# jimsonweed (DATST) [2] = assay: Test 8 field trial, preemergence; type: in vivo, Datura stramonium; conditions: g a.i./ha: Cpd 2 100, Atrazine 1680, S-Metolachlor 1870
# From the text: Corn seeds (hybrid ‘Pioneer 31G96’) were planted in mid spring season, 3.8 cm deep in a clay loam soil having 2% organic matter and a pH of 6.6. Plots were 6.1 m long by 3.0 m wide with rows spaced 76 cm apart. Seeds were spaced 15 cm apart within the rows. The field was managed using conventional tillage practices. […] A few of the weed species could not be evaluated at every timing. […] Results are the means of the three replicates.
# [3] = system: ivyleaf morningglory (IPOHE); assay: Test 10 field trial, preemergence; type: in vivo, Ipomoea hederacea; conditions: 28 DAA; g a.i./ha: Cpd 2 100, Atrazine 1680, S-Metolachlor 1870
# From the text: Corn seeds (hybrid ‘Pioneer 33P65 RR’) were planted in mid spring season, 2.5 cm deep in a silt loam soil. Plots were 9.1 m long by 3.0 m wide with rows spaced 76 cm apart. The field was managed using conventional tillage practices. […] Results are the means of the three replicates.
# alexandergrass (BRAPL) = assay: Test 11 field trial, preemergence; type: in vivo, Brachiaria plantaginea; parameters: scale not given here
# From the text: (§1) Corn seeds (hybrid ‘Pioneer 3041’) were planted in mid spring season, 5 cm deep in a clay soil having 2.6% organic matter and a pH of 5.6. Plots were 8 m long by 1.5 m wide with rows spaced 80 cm apart. Seeds were spaced 15 cm apart within the rows. The field was managed using conventional tillage practices. […] Treatments consisted of Compound 2 or
# (§2) Goosegrass was not evaluated 16 or 91 days after application.
# southern sandbur (CCHEC) = assay: Test 11 field trial, preemergence; type: in vivo, Cenchrus echinatus; parameters: scale not given here
# From the text: as §1, §2
# [4] = system: Brazilian crabgrass (DIGHO); assay: Test 11 field trial, preemergence; type: in vivo, Digitaria horizontalis; parameters: scale not given here
# From the text: as §1, §2
# winter barley (HORVW) = assay: Test 23 growth chamber, postemergence; type: in vivo, Hordeum vulgare; conditions: 21 DAA; 2,4-D or MCPA alone 250 g a.i./ha
# Description: A test was conducted to evaluate the effects on winter barley (HORVW, Hordeum vulgare L.), winter wheat (TRZAW, Triticum aestivum L.), and several weed species of mixtures of Compound 2 with the commercial herbicides (2,4-dichlorophenoxy)acetic acid (2,4-D) and (4-chloro-2-methylphenoxy)acetic acid (MCPA), auxin mimics. […] Plants were treated postemergence at the 2-4 leaf growth stage, and each treatment was replicated three times. […] Plants were watered as needed. […] Results are means of the three replicates.
# [5] = 16 DAA, atrazine 1500 or metolachlor 2500 g a.i./ha alone
# [6] = 30 DAA, atrazine 1500 or metolachlor 2500 g a.i./ha alone
# [7] = 44 DAA, atrazine 1500 or metolachlor 2500 g a.i./ha alone
# [8] = 62 DAA, atrazine 1500 or metolachlor 2500 g a.i./ha alone
# [9] = 91 DAA, atrazine 1500 or metolachlor 2500 g a.i./ha alone
# [10] = 16 DAA, Cpd 2/Cpd 1 at 62 g a.i./ha, alone or + atrazine 1500 or metolachlor 2500
# [11] = 16 DAA, Cpd 2/Cpd 1 at 125 g a.i./ha, alone or + atrazine 1500 or metolachlor 2500
# [12] = 30 DAA, Cpd 2/Cpd 1 at 62 g a.i./ha, alone or + atrazine 1500 or metolachlor 2500
# [13] = 30 DAA, Cpd 2/Cpd 1 at 125 g a.i./ha, alone or + atrazine 1500 or metolachlor 2500
# [14] = 44 DAA, Cpd 2/Cpd 1 at 62 g a.i./ha, alone or + atrazine 1500 or metolachlor 2500
# [15] = 44 DAA, Cpd 2/Cpd 1 at 125 g a.i./ha, alone or + atrazine 1500 or metolachlor 2500
# [16] = 62 DAA, Cpd 2/Cpd 1 at 62 g a.i./ha, alone or + atrazine 1500 or metolachlor 2500
# [17] = 62 DAA, Cpd 2/Cpd 1 at 125 g a.i./ha, alone or + atrazine 1500 or metolachlor 2500
# [18] = 91 DAA, Cpd 2/Cpd 1 at 62 g a.i./ha, alone or + atrazine 1500 or metolachlor 2500
# [19] = 91 DAA, Cpd 2/Cpd 1 at 125 g a.i./ha, alone or + atrazine 1500 or metolachlor 2500
smiles,measurement,setting,value
"CCc1cccc(C)c1N(C(=O)CCl)[C@@H](C)COC [S-Metolachlor, S-metolachlor, reference compound]",ZEAMD Obs,corn (ZEAMD); 28 DAA,0
same,ZEAMD Obs,corn (ZEAMD); 56 DAA,0
same,DATST Obs,jimsonweed (DATST) [1]; 14 DAA,65%
same,DATST Obs,jimsonweed (DATST) [1]; 28 DAA,57%
same,DATST Obs,jimsonweed (DATST) [1]; 62 DAA,0%
same,DATST Obs,jimsonweed (DATST) [2]; 19 DAA,40%
same,DATST Obs,jimsonweed (DATST) [2]; 29 DAA,38%
same,DATST Obs,jimsonweed (DATST) [2]; 56 DAA,52%
same,IPOHE Obs,[3],23%
"CCNc1nc(Cl)nc(NC(C)C)n1 [Atrazine, atrazine, reference compound]",ZEAMD Obs,corn (ZEAMD); 28 DAA,0
same,ZEAMD Obs,corn (ZEAMD); 56 DAA,0
same,DATST Obs,jimsonweed (DATST) [2]; 19 DAA,53%
same,DATST Obs,jimsonweed (DATST) [2]; 29 DAA,100%
same,DATST Obs,jimsonweed (DATST) [2]; 56 DAA,100%
same,IPOHE Obs,[3],37%
same,BRAPL Obs,alexandergrass (BRAPL); [5],75
same,BRAPL Obs,alexandergrass (BRAPL); [6],50
same,BRAPL Obs,alexandergrass (BRAPL); [7],50
same,BRAPL Obs,alexandergrass (BRAPL); [8],0
same,BRAPL Obs,alexandergrass (BRAPL); [9],0
same,CCHEC Obs,southern sandbur (CCHEC); [5],60
same,CCHEC Obs,southern sandbur (CCHEC); [6],40
same,CCHEC Obs,southern sandbur (CCHEC); [7],40
same,CCHEC Obs,southern sandbur (CCHEC); [8],0
same,CCHEC Obs,southern sandbur (CCHEC); [9],0
same,DIGHO Obs,[4]; [5],60
same,DIGHO Obs,[4]; [6],40
same,DIGHO Obs,[4]; [7],20
same,DIGHO Obs,[4]; [8],0
same,DIGHO Obs,[4]; [9],0
"O=C(O)COc1ccc(Cl)cc1Cl [2,4-D, (2,4-dichlorophenoxy)acetic acid]",Postemergence HORVW Obs,winter barley (HORVW),25
"Nc1nc(C2CC2)nc(C(=O)O)c1Cl [Compound 1, 6-amino-5-chloro-2-cyclopropyl-4-pyrimidinecarboxylic acid]",BRAPL Obs,alexandergrass (BRAPL); [10],40
same,BRAPL Obs,alexandergrass (BRAPL); [11],40
same,BRAPL Obs,alexandergrass (BRAPL); [12],20
same,BRAPL Obs,alexandergrass (BRAPL); [13],60
same,BRAPL Obs,alexandergrass (BRAPL); [14],0
same,BRAPL Obs,alexandergrass (BRAPL); [15],40
same,BRAPL Obs,alexandergrass (BRAPL); [16],0
same,BRAPL Obs,alexandergrass (BRAPL); [17],0
same,BRAPL Obs,alexandergrass (BRAPL); [18],0
same,BRAPL Obs,alexandergrass (BRAPL); [19],0
same,CCHEC Obs,southern sandbur (CCHEC); [10],40
same,CCHEC Obs,southern sandbur (CCHEC); [11],40
same,CCHEC Obs,southern sandbur (CCHEC); [12],20
same,CCHEC Obs,southern sandbur (CCHEC); [13],20
same,CCHEC Obs,southern sandbur (CCHEC); [14],0
same,CCHEC Obs,southern sandbur (CCHEC); [15],40
same,CCHEC Obs,southern sandbur (CCHEC); [16],0
same,CCHEC Obs,southern sandbur (CCHEC); [17],0
same,CCHEC Obs,southern sandbur (CCHEC); [18],0
same,CCHEC Obs,southern sandbur (CCHEC); [19],0
same,DIGHO Obs,[4]; [10],0
same,DIGHO Obs,[4]; [11],0
same,DIGHO Obs,[4]; [12],0
same,DIGHO Obs,[4]; [13],20
same,DIGHO Obs,[4]; [14],0
same,DIGHO Obs,[4]; [15],20
same,DIGHO Obs,[4]; [16],0
same,DIGHO Obs,[4]; [17],0
same,DIGHO Obs,[4]; [18],0
same,DIGHO Obs,[4]; [19],0
